The values below come from PMC6556873, “Rapid Covalent-Probe Discovery by Electrophile-Fragment Screening” (Journal of the American Chemical Society, 2019).

A short description of series [1]: in vitro. The arrangement: species or system CCD841, HEK293. Particulars: human, hb2 cells, read-out: HB-2 Cells Viability (%).
The next series concerns the target T1, PCAF (Homo sapiens, UniProt Q92831).
T1 construct: gene KAT2B
The arrangement: Intact protein LC/MS covalent labelling, fragments in pools of five, 200 uM each, 4 °C. As to conditions: 24 h, 4 °C, pool of five; 200 µM; covalent.

A further series has as its target T2, NUDT7 (Homo sapiens, UniProt P0C024).
T2 construct: residues 14-235, E. coli, pNIC28-Bsa4, N-terminal His6 tag removed by TEV, construct 26672 Da
The arrangement: Intact protein LC/MS covalent labelling, fragments in pools of five, 200 uM each, 4 °C. Particulars: 24 h, 4 °C, pool of five; 200 µM; covalent.

Another series concerns the target T3, BSA (Bos taurus, UniProt P02769).
T3 construct: gene ALB
The arrangement: Intact protein LC/MS covalent labelling, fragments in pools of five, 200 uM each, 4 °C. Particulars: 24 h, 4 °C, pool of five; 200 µM; covalent.

Another series addresses T4, OTUB2 (OTUB2A) (Homo sapiens, UniProt Q96DC9).
T4 construct: full length residues 1-234, E. coli BL21(DE3)-R3, His tag removed by TEV, construct 27312 Da
T4 sequence (Q96DC9 1-234): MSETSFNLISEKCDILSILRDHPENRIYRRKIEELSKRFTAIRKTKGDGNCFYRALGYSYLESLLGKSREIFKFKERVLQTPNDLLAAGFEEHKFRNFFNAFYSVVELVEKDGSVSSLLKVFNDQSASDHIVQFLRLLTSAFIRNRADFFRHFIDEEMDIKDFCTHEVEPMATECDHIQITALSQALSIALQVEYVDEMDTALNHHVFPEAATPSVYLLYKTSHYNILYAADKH
The arrangement: Intact protein LC/MS covalent labelling, fragments in pools of five, 200 uM each, 4 °C. As to conditions: 24 h, 4 °C, pool of five; 200 µM; covalent.

Series [2] in a line: in vitro. The arrangement: species or system HB2, HEK293. As to conditions: human, ccd841 cells.
A short description of series [3]: in vitro. As to conditions: human, hek293 cells. The arrangement: species or system HB2, CCD841.

Read-outs that look alike come from different tables or passages of the source.

T1 sequence (Q92831 whole entry): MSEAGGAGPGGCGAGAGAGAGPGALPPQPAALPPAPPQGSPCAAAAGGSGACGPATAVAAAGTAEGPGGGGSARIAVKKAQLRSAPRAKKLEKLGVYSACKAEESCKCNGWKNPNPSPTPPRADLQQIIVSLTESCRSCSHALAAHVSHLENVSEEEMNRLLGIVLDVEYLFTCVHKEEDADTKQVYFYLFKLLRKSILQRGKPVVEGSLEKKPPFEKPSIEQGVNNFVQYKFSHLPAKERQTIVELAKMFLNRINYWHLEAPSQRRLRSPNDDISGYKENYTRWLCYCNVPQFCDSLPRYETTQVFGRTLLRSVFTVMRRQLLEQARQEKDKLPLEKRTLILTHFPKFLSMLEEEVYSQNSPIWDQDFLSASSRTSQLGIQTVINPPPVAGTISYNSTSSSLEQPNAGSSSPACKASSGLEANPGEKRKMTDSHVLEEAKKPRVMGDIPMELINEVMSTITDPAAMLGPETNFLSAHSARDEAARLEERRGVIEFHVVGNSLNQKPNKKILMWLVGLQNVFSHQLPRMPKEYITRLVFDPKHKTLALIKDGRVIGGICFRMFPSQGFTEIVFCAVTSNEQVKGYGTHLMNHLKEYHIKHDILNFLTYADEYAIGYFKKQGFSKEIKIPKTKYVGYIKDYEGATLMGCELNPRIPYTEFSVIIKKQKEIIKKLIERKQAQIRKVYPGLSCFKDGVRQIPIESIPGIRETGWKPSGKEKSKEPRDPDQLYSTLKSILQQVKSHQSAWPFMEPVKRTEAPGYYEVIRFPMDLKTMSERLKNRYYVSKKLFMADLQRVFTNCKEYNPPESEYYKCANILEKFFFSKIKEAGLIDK
T3 sequence (P02769 whole entry): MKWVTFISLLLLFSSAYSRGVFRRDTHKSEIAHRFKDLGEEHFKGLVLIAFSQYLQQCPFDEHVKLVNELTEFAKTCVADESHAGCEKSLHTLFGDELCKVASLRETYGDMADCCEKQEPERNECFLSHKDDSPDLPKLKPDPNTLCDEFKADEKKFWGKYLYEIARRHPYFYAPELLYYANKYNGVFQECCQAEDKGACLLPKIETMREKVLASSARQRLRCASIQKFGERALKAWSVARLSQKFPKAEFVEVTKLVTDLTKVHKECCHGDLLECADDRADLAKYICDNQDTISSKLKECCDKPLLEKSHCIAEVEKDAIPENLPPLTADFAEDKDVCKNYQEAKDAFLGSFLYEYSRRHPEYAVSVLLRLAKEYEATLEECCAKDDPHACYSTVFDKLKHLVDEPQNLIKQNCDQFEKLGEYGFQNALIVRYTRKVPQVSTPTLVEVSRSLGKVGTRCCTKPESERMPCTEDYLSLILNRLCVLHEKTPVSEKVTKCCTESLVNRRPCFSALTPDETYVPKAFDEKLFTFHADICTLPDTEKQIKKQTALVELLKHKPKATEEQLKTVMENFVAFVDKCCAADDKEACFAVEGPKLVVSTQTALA
T2 sequence (P0C024 14-235): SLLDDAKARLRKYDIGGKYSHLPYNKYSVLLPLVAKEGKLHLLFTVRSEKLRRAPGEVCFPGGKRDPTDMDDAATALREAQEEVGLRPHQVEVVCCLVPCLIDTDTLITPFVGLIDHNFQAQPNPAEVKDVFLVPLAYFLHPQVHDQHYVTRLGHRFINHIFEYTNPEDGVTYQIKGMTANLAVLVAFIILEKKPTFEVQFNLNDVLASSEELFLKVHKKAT

Turning to `C=CC(=O)N1CCC(CS(C)(=O)=O)C1` (centres unmarked) [PCM-0102765], the viability (usually a read-out of living cells in per cent, often relative to untreated cells) at 48 h, 10 µM in the series “in vitro [1]” was determined as 98.4%; in the series “in vitro [2]”, 101%; in “in vitro [3]” it was 85.1%. Besides, at PCAF, the PCAF was determined as 0. In addition, at NUDT7, the NUDT7 stood at 0. In addition, at BSA, the BSA came to 0. The same molecule came in with an OTUB2 on OTUB2 (OTUB2A) of 0.

On to `CC(NC(=O)CCl)c1ccc(Cl)cc1` (centres unmarked) [PCM-0102334], for which the viability at 48 h, 10 µM is 78.4% in “in vitro [1]”, 67.8% in “in vitro [2]” and 68.5% in “in vitro [3]”. The molecule also gave a PCAF on PCAF of 0. The molecule also returned an NUDT7 at NUDT7 of 0. The same molecule returned a BSA on BSA of 0. The OTUB2 at OTUB2 (OTUB2A) stood at 0.25.

For the molecule `C=CC(=O)NC1CCCN(c2cnn(C)c2)C1` (centres unmarked) [PCM-0102480], the viability at 48 h, 10 µM was 99.5% in the series “in vitro [1]”, 96.4% in the series “in vitro [2]” and 91.8% in “in vitro [3]”. Moreover, the PCAF at PCAF was found to be 0. The molecule further had an NUDT7 at NUDT7 of 0. The same molecule returned a BSA at BSA of 0. At OTUB2 (OTUB2A), the OTUB2 was determined as 0.

For `NC(=O)c1ccccc1NC(=O)CCl` [PCM-0102758], the viability at 48 h, 10 µM is 69.6% in “in vitro [1]”, 66.1% in the series “in vitro [2]” and 53.5% in “in vitro [3]”. Moreover, the PCAF on PCAF was found to be 0. For the same molecule, the NUDT7 on NUDT7 turned out to be 0. Moreover, the BSA at BSA came out at 0. The OTUB2 on OTUB2 (OTUB2A) is given as 0.

In the case of `O=C(CCl)NNC(=O)c1ccccc1` [PCM-0102240], the viability at 48 h, 10 µM is 98.1% in the series “in vitro [1]”, 85.6% in “in vitro [2]” and 92.4% in “in vitro [3]”. At PCAF, this molecule came in with a PCAF of 0. For the same molecule, the NUDT7 at NUDT7 amounted to 0. This molecule registered a BSA on BSA of 0. The same molecule showed an OTUB2 at OTUB2 (OTUB2A) of 0.2.

`COC(=O)C1(NC(=O)CCl)CCCCC1` [PCM-0102734]: the viability at 48 h, 10 µM in the series “in vitro [1]” amounted to 98.3%; in the series “in vitro [2]”, 95.1%; in the series “in vitro [3]”, 112%. This molecule also showed a PCAF at PCAF of 0. Also, at NUDT7, the NUDT7 was determined as 0. For the same molecule, at BSA, the BSA is 0. Further, the OTUB2 at OTUB2 (OTUB2A) was found to be 0.

Take `O=C(CCl)NCC#Cc1cccc(C(F)(F)F)c1` [PCM-0103011]: the viability at 48 h, 10 µM in the series “in vitro [1]” came out at 56.8%; in the series “in vitro [2]” it was 77.4%; in the series “in vitro [3]” it was 52.5%. For the same molecule, the PCAF on PCAF is 0. In addition, the NUDT7 at NUDT7 turned out to be 0. Moreover, the BSA at BSA is 0. Besides, the OTUB2 on OTUB2 (OTUB2A) came out at 0.84.

On to `CC(NC(=O)CCl)c1ccc(Cl)c(Cl)c1` (centres unmarked) [PCM-0102096], for which the viability at 48 h, 10 µM came to 28.9% in the series “in vitro [1]”, 58.1% in “in vitro [2]” and 21.3% in the series “in vitro [3]”. This molecule displayed a PCAF on PCAF of 0. Further, on NUDT7, the NUDT7 was found to be 0.51. On BSA, this molecule displayed a BSA of 0. At OTUB2 (OTUB2A), the OTUB2 is listed as 0.26.

Regarding `O=C(CCl)Nc1ccc2c(c1)C(=O)c1ccccc1C2=O` [PCM-0102194], the viability at 48 h, 10 µM came to 1.4% in the series “in vitro [1]”, 13.7% in “in vitro [2]” and 0.7% in “in vitro [3]”. In addition, the PCAF at PCAF is 0. Besides, the NUDT7 at NUDT7 is reported as 0. In addition, the BSA at BSA worked out at 0. For the same molecule, at OTUB2 (OTUB2A), the OTUB2 is 0.

Turning to `N#CC(c1ccccc1)N1CCN(C(=O)CCl)CC1` (centres unmarked) [PCM-0102381], the viability at 48 h, 10 µM amounted to 46.7% in “in vitro [1]”, 66.2% in the series “in vitro [2]” and 31.9% in “in vitro [3]”. In addition, on PCAF, the PCAF turned out to be 0. This molecule showed an NUDT7 at NUDT7 of 0.11. This molecule had a BSA on BSA of 0. For the same molecule, the OTUB2 at OTUB2 (OTUB2A) was found to be 0.

For `CCc1ccccc1NC(=O)CCl` [PCM-0102369], the viability at 48 h, 10 µM came out at 78.3% in “in vitro [1]”, 76.1% in the series “in vitro [2]” and 56.7% in the series “in vitro [3]”. Also, the PCAF at PCAF was 0. Moreover, on NUDT7, the NUDT7 came to 0. The BSA at BSA amounted to 0. The OTUB2 on OTUB2 (OTUB2A) was 0.

For `CC(c1nc2ccccc2s1)N(C)C(=O)CCl` (centres unmarked) [PCM-0102793], the viability at 48 h, 10 µM in “in vitro [1]” was found to be 4.3%; in the series “in vitro [2]”, 26.1%; in “in vitro [3]” it was 1%. For the same molecule, the PCAF at PCAF is 0. Further, the NUDT7 on NUDT7 is on record as 0. On BSA, this molecule yielded a BSA of 0. At OTUB2 (OTUB2A), this molecule displayed an OTUB2 of 0.19.

As for `Cn1cccc1C(=O)NC(=O)CCl` [PCM-0102863], the viability at 48 h, 10 µM in “in vitro [1]” came to 106%; in “in vitro [2]” it was 112%; in “in vitro [3]” it was 92.2%. Further, the PCAF on PCAF is given as 0. The molecule also displayed an NUDT7 at NUDT7 of 0. Also, the BSA on BSA was 0.2. Besides, the OTUB2 on OTUB2 (OTUB2A) is reported as 0.

In the case of `C=CC(=O)NC1(c2nnc[nH]2)CCC1` [PCM-0102722], the viability at 48 h, 10 µM came out at 102% in “in vitro [1]”, 96.7% in the series “in vitro [2]” and 105% in “in vitro [3]”. The molecule also returned a PCAF on PCAF of 0. On NUDT7, the NUDT7 turned out to be 0. On BSA, this molecule displayed a BSA of 0. Also, the OTUB2 on OTUB2 (OTUB2A) was 0.

For the molecule `Cc1ccc(N(C(=O)CCl)C2C=CS(=O)(=O)C2)cc1C` (centres unmarked) [PCM-0103082], the viability at 48 h, 10 µM in “in vitro [1]” turned out to be 19.6%; in the series “in vitro [2]” it was 10.5%; in the series “in vitro [3]”, 4.1%. In addition, the PCAF at PCAF was determined as 0. The NUDT7 on NUDT7 amounted to 0.15. Further, on BSA, the BSA worked out at 0. On OTUB2 (OTUB2A), this molecule registered an OTUB2 of 0.

With `O=C(CCl)N1CCN(S(=O)(=O)c2cccc(F)c2)CC1` [PCM-0102327], the viability at 48 h, 10 µM in the series “in vitro [1]” turned out to be 5.2%; in “in vitro [2]” it was 45.3%; in “in vitro [3]” it was 8.1%. The same molecule showed a PCAF at PCAF of 0. Further, the NUDT7 on NUDT7 was found to be 0.13. Besides, the BSA at BSA came out at 0. At OTUB2 (OTUB2A), this molecule gave an OTUB2 of 0.

Take `O=C(CCl)NCC12CC3CC(CC(Br)(C3)C1)C2` [PCM-0102819]: the viability at 48 h, 10 µM in “in vitro [1]” was found to be 109%; in the series “in vitro [2]”, 95%; in “in vitro [3]”, 99.3%. Also, the PCAF on PCAF came out at 0. This molecule also displayed an NUDT7 on NUDT7 of 0.05. This molecule came in with a BSA at BSA of 0. The same molecule displayed an OTUB2 at OTUB2 (OTUB2A) of 0.63.

With `C=CC(=O)N1CCN(c2nccc3sccc23)CC1` [PCM-0102715], the viability at 48 h, 10 µM in the series “in vitro [1]” stood at 97.2%; in “in vitro [2]” it was 92.1%; in the series “in vitro [3]”, 78.2%. In addition, at PCAF, the PCAF was 0. For the same molecule, the NUDT7 on NUDT7 is reported as 0. The BSA at BSA came to 0. Further, on OTUB2 (OTUB2A), the OTUB2 is 0.

On to `O=C(CCl)N1CCN(S(=O)(=O)c2ccc3ccccc3c2)CC1` [PCM-0102836], for which the viability at 48 h, 10 µM in the series “in vitro [1]” was 11.7%; in the series “in vitro [2]”, 67.7%; in the series “in vitro [3]” it was 46.3%. Further, the PCAF at PCAF is 0. The same molecule showed an NUDT7 at NUDT7 of 0. On BSA, this molecule displayed a BSA of 0. For the same molecule, the OTUB2 at OTUB2 (OTUB2A) is 0.

With `O=C(CCl)N1CCCC2CCCCC21` (centres unmarked) [PCM-0102826], the viability at 48 h, 10 µM was 33.7% in the series “in vitro [1]”, 32.5% in “in vitro [2]” and 27.9% in “in vitro [3]”. The same molecule showed a PCAF at PCAF of 0. Also, the NUDT7 on NUDT7 is recorded as 0.07. The BSA on BSA was found to be 0. Further, at OTUB2 (OTUB2A), the OTUB2 is on record as 0.
